The results in this text go back to patent US12157730B2, “Heteroaryl derivative, method for producing same, and pharmaceutical composition comprising same as effective component” (VORONOI INC., priority 2019, dated 2024).

The structures appear in SMILES notation.

For the assay, the target named is T1, Ba/F3 cell EGFR Exon20 ins NPH (Homo sapiens, UniProt P00533, INS773NPH).
T1 construct: expressed in transfected cells; host or cells: Ba/F3
Description: Ba/F3 cell proliferation suppression, EGFR Exon20 ins NPH. It is filed as cell-based. The note with it: GI50 class; Ba/F3 cell line with NPH inserted at Exon20 of EGFR; 72 hours. Put shortly: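 Cells were seeded 24 h before dosing and then treated for 72 hours with compound at final concentrations of 0.3 nM to 50 um. Live cells were measured by CellTiter-Glo luminescence, and GI50 values were derived from growth ratio relative to control across three repeats.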
Consider `C=CC(=O)Nc1cc(Nc2cc(N3OCC[C@@H]3c3cccc(Cl)c3Cl)ncn2)c(OC)cc1N1CCN(C2CCCC2)CC1` [compound 563, N-(2-(4-cyclopentylpiperazine-1-yl)-5-((6-((R)-3-(2,3-dichlorophenyl)isoxazolidine-2-yl)pyrimidine-4-yl)amino)-4-methoxyphenyl) acrylamide], for which the “Ba/F3 (NPH) Activity” value is “A (GI50 < 50 nM)”.

Regarding `C=CC(=O)Nc1cc(Nc2cc(N3OCC[C@@H]3c3ccc(F)c(Cl)c3)ncn2)c(OC)cc1N1CCC(N2CCC3(CC2)CC3)CC1` [compound 872, N-(2-(4-(6-azaspiro [2.5]octan-6-yl)piperidine-1-yl)-5-((6-((R)-3-(3-chloro-4-fluorophenyl)isoxazolidine-2-yl)pyrimidine-4-yl)amino)-4-methoxyphenyl) acrylamide], the “Ba/F3 (NPH) Activity” value was “A (GI50 < 50 nM)”.

`C=CC(=O)Nc1cc(Nc2cc(N3OCC[C@@H]3c3ccc(Cl)c(Cl)c3F)ncn2)c(OC)cc1N1CCC(N2CCN(C3COC3)CC2)CC1` [Example 84, N-(5-((6-((R)-3-(3,4-dichloro-2-fluorophenyl)isoxazolidine-2-yl)pyrimidine-4-yl)amino)-4-methoxy-2-(4-(4-(oxetane-3-yl)piperazine-1-yl)piperidine-1-yl)phenyl)acrylamide]: the “Ba/F3 (NPH) Activity” value was “B (50 nM ≤ GI50 < 500 nM)”.

On to `C=CC(=O)Nc1cc(Nc2cc(N3OCC[C@@H]3c3cccc(C#N)c3)ncn2)c(OC)cc1N1CCC(N(C)C)CC1` [compound 394, N-(5-((6-((R)-3-(3-cyanophenyl)isoxazolidine-2-yl)pyrimidine-4-yl)amino)-2-(4-(dimethylamino)piperidine-1-yl)-4-methoxyphenyl) acrylamide], for which the “Ba/F3 (NPH) Activity” value is listed as “A (GI50 < 50 nM)”.

For the molecule `C=CC(=O)Nc1cc(Nc2cc(N3OCC[C@@H]3c3ccc(F)c(Cl)c3F)ncn2)c(OC)cc1N1CCC(N2CCOCC2)CC1` [compound 606, N-(5-((6-((R)-3-(3-chloro-2,4-difluorophenyl)isoxazolidine-2-yl)pyrimidine-4-yl)amino)-4-methoxy-2-(4-morpholinopiperidine-1-yl)phenyl)acrylamide], the “Ba/F3 (NPH) Activity” value is “A (GI50 < 50 nM)”.

On to `C=CC(=O)Nc1cc(Nc2cc(N3OCC[C@@H]3c3cc(F)ccc3F)ncn2)c(OC)cc1N1CCN(C2CC2)C[C@@H]1C` [compound 879, N-(2-((S)-4-cyclopropyl-2-methylpiperazine-1-yl)-5-((6-((R)-3-(2,5-difluorophenyl)isoxazolidine-2-yl)pyrimidine-4-yl)amino)-4-methoxyphenyl) acrylamide], for which the “Ba/F3 (NPH) Activity” value is “A (GI50 < 50 nM)”.

For the molecule `C=CC(=O)Nc1cc(Nc2cc(N3OCC[C@@H]3c3ccc(F)c(Cl)c3F)ncn2)c(OC)cc1N1CCN(C)[C@@H](C)C1` [compound 665, N-(5-((6-((R)-3-(3-chloro-2,4-difluorophenyl)isoxazolidine-2-yl)pyrimidine-4-yl)amino)-2-((S)-3,4-dimethylpiperazine-1-yl)-4-methoxyphenyl) acrylamide], the “Ba/F3 (NPH) Activity” value is on record as “B (50 nM ≤ GI50 < 500 nM)”.

Consider `C=CCN1CCN(C2CCN(c3cc(OC)c(Nc4cc(N5OCC[C@@H]5c5ccc(F)c(Cl)c5)ncn4)cc3NC(=O)C=C)CC2)CC1` [Example 89, N-(2-(4-(4-allylpiperazine-1-yl)piperidine-1-yl)-5-((6-((R)-3-(3-chloro-4-fluorophenyl)isoxazolidine-2-yl)pyrimidine-4-yl)amino)-4-methoxyphenyl) acrylamide], for which the “Ba/F3 (NPH) Activity” value is reported as “A (GI50 < 50 nM)”.

Turning to `C=CC(=O)Nc1cc(Nc2cc(N3OCC[C@@H]3c3ccc(F)cc3F)ncn2)c(OC)cc1N1CCC(N2CC[C@@H](N(C)C)C2)CC1` [compound 429, N-(5-((6-((R)-3-(2,4-difluorophenyl)isoxazolidine-2-yl)pyrimidine-4-yl)amino)-2-(4-((R)-3-(dimethylamino)pyrolidine-1-yl)piperidine-1-yl)-4-methoxyphenyl) acrylamide], the “Ba/F3 (NPH) Activity” value is reported as “A (GI50 < 50 nM)”.
